Patent US20190070174A1, “METHODS OF TREATING NEURODEGENERATIVE DISEASES” (priority 2016, published 2019)

Experiments:
[1] = tested on: ATXN3Q81.Luc fusion protein; test: Confirmation dose-response, ATXN3 levels by immunoblotting; format: cell-based, human; conditions: 293.ATXN3Q81Luc cells
From the text: Full-length ATXN3 (Accession number ABS29269) carrying either a normal or an expanded polyQ tract (Q26 or Q81) was subcloned in the vector pcDNA3.1 FLAG.firefly Luciferase. The mammalian expression plasmids pcDNA.FLAG.ATXN3Q26.Luc and pcDNA.FLAG.ATXN3Q81.Luc were confirmed by sequencing and shown to express N-terminal FLAG-tagged ATXN3Q26 or ATXN3Q81 fused with firefly Luciferase (Luc), respectively. These neomycin-resistant plasmids were transfected into HEK293 cells using Lipofectamine LTX (Invitrogen) during four hours, after which medium was replaced by growth medium (DMEM/10% fetal bovine serum (FBS)/1% penicillin/streptomycin (PS)). […] After one month of passage in selection medium, stably transfected clones for each cell line (293.ATXN3Q26Luc and 293.ATXN3Q81Luc) were pooled and frozen in liquid nitrogen. Stably transfected cell lines were maintained in selection medium except during treatment with specific compounds that were diluted in growth medium.
Protein lysates from cell cultures, mouse brain slices or mouse brains were obtained by lysis in RIPA buffer containing protease inhibitors (Complete, Roche Diagnostics), followed by sonication and centrifugation. The supernatants (soluble protein fractions) were collected, total protein concentration was determined using the BCA method (Pierce) and then stored at −80° C. Total proteins (50 μg from cell and slice cultures or 75 μg from brain regions of mice) were resolved in 10% SDS-PAGE gels, and corresponding PVDF membranes were incubated overnight at 4° C. with primary antibodies: mouse anti-ATXN3 (1H9) (1:2000; MAB5360, Millipore), goat anti-Luciferase (1:500; G7451, Promega), mouse anti-FLAG (M5) (1:500; IB13091, Sigma), rabbit anti-LC3 (1:500; PM036, MBL International Corporation), mouse anti-HSP90β (1:1000; ADI-SPA842, Enzo Life Sciences), rabbit anti-HSP90α (1:1000; ab2928, Abcam), mouse anti-HSP70 (1:500; SPA810, Enzo Life Sciences), rabbit anti-HSP40 (1:1000; #4868, Cell Signaling), rabbit anti-HSP25 (1:1000; ADI-SPA801, Enzo Life Sciences), rabbit anti-HSF1 (1:1000, ADI-SPA-901, Enzo Life Sciences), rabbit anti-ubiquitin (1:1000, Z 0458, Dako), rabbit anti-RAD23A (1:5000; TA307264, Origene), rabbit anti-RAD23B (1:2000; A302-306A, Bethyl Labs), rabbit anti-α-Tubulin (11H10) (1:10000; #2125, Cell Signaling), and mouse anti-GAPDH (1:1000; MAB374, Millipore). Pellets corresponding to insoluble protein fractions were resuspended in 100 μL of Laemmli buffer 2× and boiled for 10 min. Insoluble proteins were then quantified, and 100 μg were loaded in a filter trap assay apparatus and transferred to a nitrocellulose membrane (0.45 μm pore) that was incubated overnight with rabbit anti-MJD antibody (1:5000) at 4° C. Bound primary antibodies were visualized by incubation with a peroxidase-conjugated anti-mouse or anti-rabbit secondary antibody (1:10000; Jackson Immuno Research Laboratories) followed by treatment with the ECL-plus reagent (Western Lighting, PerkinElmer) and exposure to autoradiography films. Band intensity was quantified by densitometry using ImageJ.

[2] = tested on: MJD/SCA3 flies; test: Survival of MJD/SCA3 flies; format: in vivo, Drosophila; conditions: 50 μM in food from eclosion
Experimental: Drosophila stocks were reared on standard cornmeal media at 25° C. in diurnal environments with ˜60% humidity. […] Full-length human ATXN3 cDNA with 77 CAG was cloned into pWalium10-moe (Perrimon Lab, Harvard Medical School). Flies that carry ATXN3 in site attP2 or the empty vector control into the same site as the most isogenic control line were generated. Injections were done into y[1], w[*]; +; attP2 (landing site). […] Adult flies of the following genotypes, w[*]; sqh-Gal4/+; UAS-ataxin-3Q77/+ or w[*], sqh-Gal4/+; Empty-Vector-Control/+ were switched from standard media to instant media as soon as they eclosed from their pupal case (day 0), and thereafter maintained on instant media with vehicle compound. Media was switched every three days, and death was noted daily.
At least 200 flies in groups of 9 to 17 flies per treatment vial were monitored.

[3] = tested on: ATXN3; test: Subchronic treatment of Q84 mice, anti-ATXN3 immunofluorescence of ventral pons; format: in vivo, human
Experimental: YACMJD84.2 transgenic mice were housed in cages with a maximum number of five animals and maintained in a standard 12-hour light/dark cycle with food and water ad libitum. Genotyping was performed using DNA isolated from tail biopsy at the time of weaning, and genotypes of all studied mice were confirmed using DNA extracted from tails collected post-mortem. […] Five hours after the final injection, mice were anesthetized with ketamine/xylazine and perfused transcardially with phosphate buffered saline (PBS) (for RNA and protein studies), and brains were immediately placed on dry ice and stored at −80° C.
Brains from mice perfused with 4% PFA were post-fixed overnight at 4° C. in the same fixative, immersed in 30% sucrose/PBS, and sectioned on a sledge microtome (SM200R Leica Biosystems). […] Neuronal nuclear ATXN3 was quantified using ImageJ by quantifying ATXN3 fluorescence in DAPI and NeuN double-positive nuclei. Corrected total cell fluorescence (CTCF) was obtained by measuring ATXN3 fluorescence in 15 nuclei/image field/mouse and normalizing for nuclei area using the equation CTCF=fluorescence intensity−(nucleus area×mean fluorescence of background readings). ATXN3 positive puncta were quantified using ImageJ by assessing particle fluorescence (applying the triangle threshold) in the same image fields described above.

O=C1CCc2ccc(OCCCCN3CCN(c4cccc(Cl)c4Cl)CC3)cc2N1 [aripiprazole]
levels of ATXN3Q81.Luc fusion protein [1]: confirmed to decrease levels of ATXN3Q81.Luc fusion protein | increased mean survival compared with vehicle-treated flies [2]: 1.3 days | mean survival ([2]; vehicle-treated 7.7±0.343): 9.0 ± 0.367 days | ATXN3 nuclear levels vs vehicle ([3]; neuronal nuclei of ventral pons): no differences | total ATXN3 fluorescence vs control mice ([3]; pons): non-significant trend towards a decrease
